Results published in ChEMBL document CHEMBL1145029, “Design, synthesis, and evaluation of benzothiadiazepine hydroxamates as selective tumor necrosis factor-alpha converting enzyme inhibitors” (J Med Chem, 2003).

How the values were obtained:
[1] = molecular target: Matrix metalloproteinase-9 (Homo sapiens, UniProt P14780); test: In vitro inhibitory activity against broad spectrum matrix metalloprotease-9 (MMP-9)
Interstitial collagenase = molecular target: T1, Interstitial collagenase (Homo sapiens, UniProt P03956); test: In vitro inhibitory activity against broad spectrum matrix metalloprotease-1 (MMP-1)
T1 sequence (P03956 whole entry): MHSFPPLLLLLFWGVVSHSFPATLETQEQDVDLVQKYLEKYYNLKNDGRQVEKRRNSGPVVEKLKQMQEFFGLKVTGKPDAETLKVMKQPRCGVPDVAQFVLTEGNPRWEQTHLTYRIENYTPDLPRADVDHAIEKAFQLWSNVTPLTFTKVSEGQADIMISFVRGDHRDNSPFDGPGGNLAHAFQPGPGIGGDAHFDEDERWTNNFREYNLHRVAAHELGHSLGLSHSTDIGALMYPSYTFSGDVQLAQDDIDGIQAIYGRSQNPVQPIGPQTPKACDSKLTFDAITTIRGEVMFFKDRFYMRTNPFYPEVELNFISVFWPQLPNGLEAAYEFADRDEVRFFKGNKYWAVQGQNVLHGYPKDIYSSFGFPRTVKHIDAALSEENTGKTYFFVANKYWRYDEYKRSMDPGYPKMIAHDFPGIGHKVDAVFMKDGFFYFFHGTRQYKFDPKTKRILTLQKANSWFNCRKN

[2] = molecular target: 72 kDa type IV collagenase (Homo sapiens, UniProt P08253)
Sequence of 72 kDa type IV collagenase (P08253 whole entry, the tested form may be a part): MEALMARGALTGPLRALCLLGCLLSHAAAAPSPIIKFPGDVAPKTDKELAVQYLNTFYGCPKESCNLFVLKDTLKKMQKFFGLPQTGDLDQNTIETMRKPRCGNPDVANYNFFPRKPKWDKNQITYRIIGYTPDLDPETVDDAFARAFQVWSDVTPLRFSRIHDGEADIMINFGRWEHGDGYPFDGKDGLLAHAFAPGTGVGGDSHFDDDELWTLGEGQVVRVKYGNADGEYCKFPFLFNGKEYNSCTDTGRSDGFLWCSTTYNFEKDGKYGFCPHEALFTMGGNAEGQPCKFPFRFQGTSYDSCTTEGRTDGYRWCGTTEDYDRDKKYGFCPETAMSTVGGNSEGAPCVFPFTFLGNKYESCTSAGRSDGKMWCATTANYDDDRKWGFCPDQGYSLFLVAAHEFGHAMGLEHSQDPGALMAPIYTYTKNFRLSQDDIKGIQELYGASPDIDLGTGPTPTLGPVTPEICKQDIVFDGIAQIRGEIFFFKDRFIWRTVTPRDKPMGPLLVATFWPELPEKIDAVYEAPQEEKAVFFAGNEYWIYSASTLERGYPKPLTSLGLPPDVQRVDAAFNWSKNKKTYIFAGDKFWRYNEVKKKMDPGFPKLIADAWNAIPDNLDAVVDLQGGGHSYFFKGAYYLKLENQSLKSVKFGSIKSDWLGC
Description: In vitro inhibitory activity against broad spectrum matrix metalloprotease-2 (MMP-2)

[3] = molecular target: T2, Disintegrin and metalloproteinase domain-containing protein 17 (Homo sapiens, UniProt P78536); test: Ability to suppress the formation of TNF-aplha in human peripheral blood mononuclear cell assay(PBMC); format: functional
T2 sequence (P78536 whole entry, the tested form may be a part): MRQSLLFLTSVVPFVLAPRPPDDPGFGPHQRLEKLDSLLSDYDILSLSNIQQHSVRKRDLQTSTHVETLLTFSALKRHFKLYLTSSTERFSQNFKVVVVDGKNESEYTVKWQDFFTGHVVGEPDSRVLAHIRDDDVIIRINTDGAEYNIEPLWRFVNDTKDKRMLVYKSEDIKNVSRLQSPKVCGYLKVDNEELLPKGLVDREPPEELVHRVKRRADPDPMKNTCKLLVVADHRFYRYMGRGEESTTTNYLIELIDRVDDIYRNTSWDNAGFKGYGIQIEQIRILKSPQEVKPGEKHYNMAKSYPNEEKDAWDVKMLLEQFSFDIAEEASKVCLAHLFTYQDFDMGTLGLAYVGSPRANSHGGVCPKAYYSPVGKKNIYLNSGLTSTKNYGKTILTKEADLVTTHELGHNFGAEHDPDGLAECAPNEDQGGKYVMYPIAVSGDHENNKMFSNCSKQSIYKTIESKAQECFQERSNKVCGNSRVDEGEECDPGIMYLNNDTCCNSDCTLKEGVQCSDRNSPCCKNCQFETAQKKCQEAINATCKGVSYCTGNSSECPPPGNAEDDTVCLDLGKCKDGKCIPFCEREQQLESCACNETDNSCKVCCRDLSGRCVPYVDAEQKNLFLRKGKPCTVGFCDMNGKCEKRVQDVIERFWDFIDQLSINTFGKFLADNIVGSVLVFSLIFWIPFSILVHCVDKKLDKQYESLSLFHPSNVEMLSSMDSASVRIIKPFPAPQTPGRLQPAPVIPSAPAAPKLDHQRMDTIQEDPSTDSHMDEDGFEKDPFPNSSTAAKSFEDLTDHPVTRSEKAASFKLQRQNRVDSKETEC

[4] = molecular target: T2, Disintegrin and metalloproteinase domain-containing protein 17; test: Ability to suppress the formation of TNF-aplha in human whole blood assay (WBA); format: functional, tissue-based

Sequence of Matrix metalloproteinase-9 (P14780 whole entry): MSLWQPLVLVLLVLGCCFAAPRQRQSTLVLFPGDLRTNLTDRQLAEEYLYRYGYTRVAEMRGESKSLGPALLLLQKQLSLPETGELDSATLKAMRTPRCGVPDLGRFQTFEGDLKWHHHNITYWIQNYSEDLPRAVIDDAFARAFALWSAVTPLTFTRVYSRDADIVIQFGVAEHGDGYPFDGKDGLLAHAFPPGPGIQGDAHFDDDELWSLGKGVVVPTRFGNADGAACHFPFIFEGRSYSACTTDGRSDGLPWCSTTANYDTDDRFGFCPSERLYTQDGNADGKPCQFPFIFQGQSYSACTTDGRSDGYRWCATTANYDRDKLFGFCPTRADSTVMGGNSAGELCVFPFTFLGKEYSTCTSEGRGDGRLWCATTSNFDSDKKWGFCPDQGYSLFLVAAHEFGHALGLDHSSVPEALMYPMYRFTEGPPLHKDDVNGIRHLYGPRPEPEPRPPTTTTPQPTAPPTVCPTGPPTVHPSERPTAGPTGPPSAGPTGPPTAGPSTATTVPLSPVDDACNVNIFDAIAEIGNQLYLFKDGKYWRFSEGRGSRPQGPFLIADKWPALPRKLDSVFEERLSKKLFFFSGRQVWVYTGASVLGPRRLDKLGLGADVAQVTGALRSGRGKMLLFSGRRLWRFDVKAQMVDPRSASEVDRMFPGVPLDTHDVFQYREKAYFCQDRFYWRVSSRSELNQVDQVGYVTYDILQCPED

| Structure (SMILES) | Ki [1] | Ki (Interstitial collagenase) | Ki [2] | IC50 [3] | IC50 [4] |
| --- | --- | --- | --- | --- | --- |
| C[C@H](C(=O)NO)N1CCNc2ccccc2S1(=O)=O | 567 nM | > 4950 nM | 75 nM | – | – |
| COc1cc(COc2ccc3c(c2)NCCN([C@H](CC(C)C)C(=O)NO)S3(=O)=O)cc(OC)c1 | > 2130 nM | > 4950 nM | 154 nM | 5400 nM | – |
| Cc1cc(C)cc(COc2ccc3c(c2)NCCN([C@H](C)C(=O)NO)S3(=O)=O)c1 | > 2130 nM | > 4950 nM | 136 nM | – | – |
| COc1cc(COc2ccc3c(c2)NCCN([C@@H](C(=O)NO)C(C)C)S3(=O)=O)cc(OC)c1 | 981 nM | > 4950 nM | 647 nM | 4000 nM | – |
| Cc1cc(C)cc(C(=O)Nc2ccc3c(c2)NCCN([C@H](C)C(=O)NO)S3(=O)=O)c1 | 993 nM | > 4950 nM | 94 nM | – | – |
| Cc1cc(COc2ccc3c(c2)NCCN([C@H](C)C(=O)NO)S3(=O)=O)cc(C)n1 | 1840 nM | > 4950 nM | 75 nM | 2900 nM | – |
| C[C@H](C(=O)NO)N1CCNc2cc(-c3ccccc3C(F)(F)F)ccc2S1(=O)=O | > 2130 nM | > 4950 nM | 2520 nM | – | – |
| CCOc1cc(COc2ccc3c(c2)NCCN([C@H](CCCC(=O)OC)C(=O)NO)S3(=O)=O)cc(OCC)c1 | > 2130 nM | > 4950 nM | 1380 nM | 1100 nM | 24000 nM |
| COc1ccc2c(c1)NCCN([C@@H](C(=O)NO)C(C)C)S2(=O)=O | 751 nM | 732 nM | 52 nM | – | – |
| COc1ccc2c(c1)NCN([C@H](C)C(=O)NO)S2(=O)=O | 1050 nM | > 4950 nM | 312 nM | – | – |
| CCOc1cc(COc2ccc3c(c2)NCCN([C@H](C)C(=O)NO)S3(=O)=O)cc(OCC)c1 | > 2130 nM | > 4950 nM | 690 nM | 4500 nM | – |
| COc1cc(COc2ccc3c(c2)NCCN([C@H](CCCCNS(C)(=O)=O)C(=O)NO)S3(=O)=O)cc(OC)c1 | > 2130 nM | > 4950 nM | 391 nM | 1900 nM | 38000 nM |
| COc1cc(COc2ccc3c(c2)NCCN([C@H](CCCCN)C(=O)NO)S3(=O)=O)cc(OC)c1 | > 2130 nM | > 4950 nM | 231 nM | – | – |
| COc1cc(COc2ccc3c(c2)NCCN([C@H](C)C(=O)NO)S3(=O)=O)cc(OC)c1 | > 2130 nM | > 4950 nM | 491 nM | 770 nM | 28000 nM |
| O=C(CN1CCNc2ccccc2S1(=O)=O)NO | > 2130 nM | > 4950 nM | 1920 nM | – | – |
| COC(=O)CCC[C@H](C(=O)NO)N1CCNc2cc(OCc3cc(OC)cc(OC)c3)ccc2S1(=O)=O | > 2130 nM | > 4950 nM | 332 nM | 900 nM | – |
| COc1ccc2c(c1)NCCN(CC(=O)NO)S2(=O)=O | > 2130 nM | > 4950 nM | 1500 nM | – | – |
| C[C@H](C(=O)NO)N1CCNc2cc(OCc3cc(Cl)cc(Cl)c3)ccc2S1(=O)=O | 1210 nM | > 4950 nM | 49 nM | 940 nM | – |
| Cc1nc(COc2ccc3c(c2)NCCN([C@@H](C(=O)NO)C(C)C)S3(=O)=O)sc1C | > 2130 nM | > 4950 nM | 361 nM | 24500 nM | – |
| COC(=O)CC[C@H](C(=O)NO)N1CCNc2cc(OCc3cc(OC)cc(OC)c3)ccc2S1(=O)=O | > 2130 nM | > 4950 nM | 1590 nM | 7200 nM | – |
| CCOc1cc(COc2ccc3c(c2)NCCN([C@H](CCC(=O)OC)C(=O)NO)S3(=O)=O)cc(OCC)c1 | > 2130 nM | > 4950 nM | 960 nM | 6200 nM | – |
| CCOc1cc(COc2ccc3c(c2)NCCN([C@@H](C(=O)NO)C(C)C)S3(=O)=O)cc(OCC)c1 | > 2130 nM | > 4950 nM | 3000 nM | 8200 nM | – |
| COc1cc(CNc2ccc3c(c2)NCCN([C@H](CC(C)C)C(=O)NO)S3(=O)=O)cc(OC)c1 | 347 nM | > 4950 nM | 75 nM | – | – |

The next compounds have a lower Ki [1] than those just listed; values first:

| Ki [1] | Ki (Interstitial collagenase) | Ki [2] | IC50 [3] | IC50 [4] | Structure (SMILES) |
| --- | --- | --- | --- | --- | --- |
| 8 nM | 272 nM | < 2.8 nM | – | – | C[C@H](C(=O)NO)N1CCNc2cc(-c3ccccc3)ccc2S1(=O)=O |
| 7 nM | > 4950 nM | < 2.8 nM | 840 nM | – | C[C@H](C(=O)NO)N1CCNc2cc(Oc3ccc(C(F)(F)F)cc3)ccc2S1(=O)=O |
| 118 nM | > 4950 nM | 32 nM | – | – | COc1cc(COc2ccc3c(c2)NCCN([C@H](CCCCNC(=O)OC(C)(C)C)C(=O)NO)S3(=O)=O)cc(OC)c1 |
| 80 nM | 479 nM | 11 nM | 9500 nM | – | CC(C)C[C@H](C(=O)NO)N1CCNc2cc(O)ccc2S1(=O)=O |
| 19 nM | > 4950 nM | 8 nM | 1200 nM | 15000 nM | C[C@H](C(=O)NO)N1CCNc2cc(Oc3ccc([N+](=O)[O-])cc3)ccc2S1(=O)=O |
| < 2.1 nM | 548 nM | < 2.8 nM | 350 nM | – | CC(C)C[C@H](C(=O)NO)N1CCNc2cc(OCc3ccccc3)ccc2S1(=O)=O |
| < 2.1 nM | 2020 nM | < 2.8 nM | – | – | C[C@H](C(=O)NO)N1CCNc2cc(Oc3ccc(-c4ccccc4)cc3)ccc2S1(=O)=O |
| 100 nM | 980 nM | < 2.8 nM | – | – | C[C@H](C(=O)NO)N1CCNc2cc(O)ccc2S1(=O)=O |
| 3.6 nM | > 4950 nM | < 2.8 nM | – | – | C[C@H](C(=O)NO)N1CCNc2cc(OCc3ccccc3)ccc2S1(=O)=O |
| 96 nM | > 4950 nM | 85 nM | 470 nM | 1400 nM | C[C@H](C(=O)NO)N1CCNc2cc(Oc3cccc([N+](=O)[O-])c3)ccc2S1(=O)=O |
| 3 nM | > 4950 nM | 23 nM | – | – | C[C@H](C(=O)NO)N1CCNc2cc(Oc3ccccc3)ccc2S1(=O)=O |
| < 2.1 nM | > 4950 nM | < 2.8 nM | – | – | COc1ccc(Oc2ccc3c(c2)NCCN([C@H](C)C(=O)NO)S3(=O)=O)cc1 |
| 104 nM | 1060 nM | – | – | – | COc1ccc2c(c1)NCCN([C@H](C)C(=O)NO)S2(=O)=O |
